Measured values published in US9096492B2, “Hydrated N-fullerene amino acids, method for producing the latter, and pharmaceutical compositions on the basis thereof” (priority 2011, dated 2015).
Like-named read-outs stand apart in the source and are kept apart here.

Columns and labels:
[1] = system: A/Puerto Rico/8/34 (H1N1) influenza virus; assay type: in vivo, mice; conditions: for Size of chronic post-influenza pneumonia sites (% of the total surface area of the lungs): the lower of the virus doses used, day 15
[2] = system: A/Vladivostok/2/09 (H1N1) influenza virus; assay type: in vivo, mice; conditions: for Size of chronic post-influenza pneumonia sites (% of the total surface area of the lungs): the lower of the virus doses used, day 15
[3] = Tamiflu 20 mg/kg, Summary dose, n=28
[4] = Tamiflu 20 mg/kg, Summary dose, n=19

In the case of “N-fullerene tris(δ-aminocaproic acid) hydrate [Agent 1]”, the “Average lifetime (LD)” value ([1]; 30 mg/kg, Summary dose, n=29) is reported as 11.8 days, the “Increase in LD” value ([1]; 30 mg/kg, Summary dose, n=29) is reported as 1.4 days and the “Mortality rate, %” value ([1]; 30 mg/kg, Summary dose, n=29) is reported as 55.2%. The Number of survivors ([1]; 30 mg/kg, Summary dose, n=29) was 13, the “Average lifetime (LD)” value ([1]; 30 mg/kg, […], n=14) was 13.3 days and the “Increase in LD” value ([1]; 30 mg/kg, […], n=14) was 1.0 days. For the same compound, the “Mortality rate, %” value ([1]; 30 mg/kg, […], n=14) was 35.7%, the Number of survivors ([1]; 30 mg/kg, […], n=14) was 9 and the “Average lifetime (LD)” value ([1]; 30 mg/kg, […], n=15) was 10.4 days. The “Increase in LD” value ([1]; 30 mg/kg, […], n=15) was 2.3 days, the “Mortality rate, %” value ([1]; 30 mg/kg, […], n=15) was 73.3% and the Number of survivors ([1]; 30 mg/kg, […], n=15) was 4. For the same compound, the “Average lifetime (LD)” value ([1]; 100 mg/kg, Summary dose, n=30) was 12.6 days, the “Increase in LD” value ([1]; 100 mg/kg, Summary dose, n=30) was 2.2 days and the “Mortality rate, %” value ([1]; 100 mg/kg, Summary dose, n=30) was 40.0%. For the same compound, the Number of survivors ([1]; 100 mg/kg, Summary dose, n=30) was 18, the “Average lifetime (LD)” value ([1]; 300 mg/kg, Summary dose, n=29) was 12.5 days and the “Increase in LD” value ([1]; 300 mg/kg, Summary dose, n=29) was 2.2 days. The “Mortality rate, %” value ([1]; 300 mg/kg, Summary dose, n=29) was 31.0%, the Number of survivors ([1]; 300 mg/kg, Summary dose, n=29) was 20 and the “Average lifetime (LD)” value ([1]; 300 mg/kg, […], n=14) was 11.3 days. For the same compound, the “Increase in LD” value ([1]; 300 mg/kg, […], n=14) was 3.2 days, the “Mortality rate, %” value ([1]; 300 mg/kg, […], n=14) was 42.9% and the Number of survivors ([1]; 300 mg/kg, […], n=14) was 8. For the same compound, the “Average lifetime (LD)” value ([1]; 300 mg/kg, […], n=15) was 13.7 days, the “Increase in LD” value ([1]; 300 mg/kg, […], n=15) was 1.3 days and the “Mortality rate, %” value ([1]; 300 mg/kg, […], n=15) was 20.0%. The Number of survivors ([1]; 300 mg/kg, […], n=15) was 12, the “Size of chronic post-influenza pneumonia sites (% of the total surface area of the lungs)” value ([1]; 300 mg/kg) was 13 ± 3% and the “Average lifetime (LD)” value ([2]; 30 mg/kg, Summary dose, n=25) was 13.7 days. The “Increase in LD” value ([2]; 30 mg/kg, Summary dose, n=25) was 1.4 days, the “Mortality rate, %” value ([2]; 30 mg/kg, Summary dose, n=25) was 28.0% and the Number of survivors ([2]; 30 mg/kg, Summary dose, n=25) was 18. For the same compound, the “Average lifetime (LD)” value ([2]; 30 mg/kg, […], n=12) was 13.2 days, the “Increase in LD” value ([2]; 30 mg/kg, […], n=12) was 1.8 days and the “Mortality rate, %” value ([2]; 30 mg/kg, […], n=12) was 41.7%. For the same compound, the Number of survivors ([2]; 30 mg/kg, […], n=12) was 7, the “Average lifetime (LD)” value ([2]; 30 mg/kg, […], n=13) was 14.2 days and the “Increase in LD” value ([2]; 30 mg/kg, […], n=13) was 1.0 days. The “Mortality rate, %” value ([2]; 30 mg/kg, […], n=13) was 15.4%, the Number of survivors ([2]; 30 mg/kg, […], n=13) was 11 and the “Average lifetime (LD)” value ([2]; 100 mg/kg, Summary dose, n=22) was 13.6 days. For the same compound, the “Increase in LD” value ([2]; 100 mg/kg, Summary dose, n=22) was 1.3 days, the “Mortality rate, %” value ([2]; 100 mg/kg, Summary dose, n=22) was 27.3% and the Number of survivors ([2]; 100 mg/kg, Summary dose, n=22) was 16. The “Average lifetime (LD)” value ([2]; 100 mg/kg, […], n=10) was 14.0 days, the “Increase in LD” value ([2]; 100 mg/kg, […], n=10) was 0.8 days and the “Mortality rate, %” value ([2]; 100 mg/kg, […], n=10) was 20.0%. For the same compound, the Number of survivors ([2]; 100 mg/kg, […], n=10) was 8, the “Average lifetime (LD)” value ([2]; 100 mg/kg, […], n=12) was 13.3 days and the “Increase in LD” value ([2]; 100 mg/kg, […], n=12) was 1.9 days. For the same compound, the “Mortality rate, %” value ([2]; 100 mg/kg, […], n=12) was 33.3%, the Number of survivors ([2]; 100 mg/kg, […], n=12) was 8 and the “Average lifetime (LD)” value ([2]; 300 mg/kg, Summary dose, n=26) was 14.2 days. For the same compound, the “Increase in LD” value ([2]; 300 mg/kg, Summary dose, n=26) was 1.8 days, the “Mortality rate, %” value ([2]; 300 mg/kg, Summary dose, n=26) was 15.4% and the Number of survivors ([2]; 300 mg/kg, Summary dose, n=26) was 22. The “Size of chronic post-influenza pneumonia sites (% of the total surface area of the lungs)” value ([2]; 300 mg/kg) was 7 ± 2%.
In the case of `CCOC(=O)C1=C[C@@H](OC(CC)CC)[C@H](NC(C)=O)[C@@H](N)C1.O=P(O)(O)O` [Tamiflu, ethyl(3R,4R,5S)-4-acetamido-5-amino-3-(1-ethylpropoxy)-1-cyclohexene-1-carboxylate phosphate, reference compound], the “reduction of the death rate compared to the control” value ([1]; Tamiflu) is reported as “approximately 70%”, the “Average lifetime (LD)” value [1, 3] is reported as 13.9 days and the “Increase in LD” value [1, 3] is reported as 3.6 days. The “Index of protection, %” value [1, 3] was 66.7%, the “Mortality rate, %” value [1, 3] was 21.4% and the Number of survivors [1, 3] was 22. The “Average lifetime (LD)” value ([1]; Tamiflu 20 mg/kg, […], n=13) was 14.4 days, the “Increase in LD” value ([1]; Tamiflu 20 mg/kg, […], n=13) was 2.1 days and the “Index of protection, %” value ([1]; Tamiflu 20 mg/kg, […], n=13) was 67.0%. For the same compound, the “Mortality rate, %” value ([1]; Tamiflu 20 mg/kg, […], n=13) was 15.4%, the Number of survivors ([1]; Tamiflu 20 mg/kg, […], n=13) was 11 and the “Average lifetime (LD)” value ([1]; Tamiflu 20 mg/kg, […], n=15) was 13.5 days. The “Increase in LD” value ([1]; Tamiflu 20 mg/kg, […], n=15) was 5.5 days, the “Index of protection, %” value ([1]; Tamiflu 20 mg/kg, […], n=15) was 68.5% and the “Mortality rate, %” value ([1]; Tamiflu 20 mg/kg, […], n=15) was 26.7%. For the same compound, the Number of survivors ([1]; Tamiflu 20 mg/kg, […], n=15) was 11, the “Size of chronic post-influenza pneumonia sites (% of the total surface area of the lungs)” value ([1]; Tamiflu 20 mg/kg) was 15 ± 4; % and the “activity against the strain” value ([2]; Tamiflu 20 mg/kg) was “inactive”. The “Average lifetime (LD)” value [2, 4] was 12.5 days, the “Increase in LD” value [2, 4] was 0.2 days and the “Index of protection, %” value [2, 4] was 14.0%. For the same compound, the “Mortality rate, %” value [2, 4] was 36.8%, the Number of survivors [2, 4] was 12 and the “Average lifetime (LD)” value ([2]; Tamiflu 20 mg/kg, […], n=9) was 13.4 days. The “Increase in LD” value ([2]; Tamiflu 20 mg/kg, […], n=9) was 0.3 days, the “Index of protection, %” value ([2]; Tamiflu 20 mg/kg, […], n=9) was 18.5% and the “Mortality rate, %” value ([2]; Tamiflu 20 mg/kg, […], n=9) was 22.2%. The Number of survivors ([2]; Tamiflu 20 mg/kg, […], n=9) was 7, the “Average lifetime (LD)” value ([2]; Tamiflu 20 mg/kg, […], n=10) was 11.7 days and the “Increase in LD” value ([2]; Tamiflu 20 mg/kg, […], n=10) was 0.3 days. The “Index of protection, %” value ([2]; Tamiflu 20 mg/kg, […], n=10) was 16.7%, the “Mortality rate, %” value ([2]; Tamiflu 20 mg/kg, […], n=10) was 50.0% and the Number of survivors ([2]; Tamiflu 20 mg/kg, […], n=10) was 5. For the same compound, the “Size of chronic post-influenza pneumonia sites (% of the total surface area of the lungs)” value ([2]; Tamiflu 20 mg/kg) was 15 ± 5%.
